Measurements taken from US11453632B2, “1-phenyl-2-phenylethane derivative” (KAO CORPORATION, priority 2018, dated 2022).

Key:
[1] = system: back skin browning induced by testosterone; experiment: Effect on sebum secretion (back skin browning) in testosterone-treated rat; type: in vivo; conditions: testosterone 3 mg/kg/day plus test substance, subcutaneous osmotic pump, 28 days
Text: 12-week-old male Slc:SD (SPF) rats were obtained from Japan SLC, Inc. An acclimatization period was established for 1 week after receipt. During the acclimatization period, the rats were allowed to freely ingest a powder diet (AIN-93G). 2) Implantation of Osmotic Pump After body weight measurement, back hair was shaved under isoflurane (AbbVie GK) inhalation anesthesia, and carprofen was subcutaneously administered to the rats. Then, an incision of approximately 1 cm at the maximum was made on the cranial side in the back. An osmotic minipump Alzet (Muromachi Kikai Co., Ltd.) containing testosterone and compound 17-F or finasteride (Sigma-Aldrich Co. LLC) was subcutaneously implanted. From this osmotic pump, testosterone (3 mg/kg body weight/day) (Sigma-Aldrich Co. LLC) and compound 17-F (0.1 mg/body weight/day or 1 mg/kg body weight/day) or finasteride (0.1 mg/kg body weight/day or 1 mg/kg body weight/day) were continuously administered for 28 days. Since the implantation of the osmotic pump, the rats were allowed to freely ingest customized feed AIN-93G (Oriental Yeast Co., Ltd.) free from components derived from soybeans. 3) Photographing of Skin and Harvesting of Prostate After a lapse of 28 days, body weights were measured, and subsequently, the rats were euthanized by blood letting under isoflurane anesthesia. […] Wet weights were measured. […]

ERβ LBD = target: T1, ERβ LBD (Homo sapiens, UniProt Q92731); experiment: Ability to bind to ERβ: pBIND-ERβ LBD / GAL4 luciferase reporter in HEK293 cells; type: cell-based; set-up: key: RLU = firefly luminescence / Renilla luminescence; conditions: negative control 0.0118997
T1 construct: host or cells: HEK293
T1 sequence (Q92731 264-498 limits assumed): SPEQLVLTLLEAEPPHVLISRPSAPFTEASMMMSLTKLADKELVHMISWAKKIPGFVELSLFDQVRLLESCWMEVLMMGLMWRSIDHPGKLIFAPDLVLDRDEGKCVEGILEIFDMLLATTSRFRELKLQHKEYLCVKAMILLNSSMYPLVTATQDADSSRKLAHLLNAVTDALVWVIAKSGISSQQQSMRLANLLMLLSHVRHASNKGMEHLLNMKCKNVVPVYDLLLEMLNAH
Method: This evaluation system is a system exploiting difference in the sequence of the ligand binding domain (LBD) between ERα and ERβ (J Endocrinol 163: 379-383 (1999)), and enables selective activation of ERβ to be evaluated by determining the binding of a ligand to LBD and the activation of ER.
(§1) A human kidney-derived cell line HEK293 was cultured (37° C., 5% CO2) in Dulbecco's modified Eagle medium (hereinafter, abbreviated to DMEM) containing 10% (v/v) fetal bovine serum (FBS) and penicillin/streptomycin.
(§2) 2) Measurement of Binding Activity Against ERs
(§3) This measurement was carried out according to the method described in JP-B-5990058. Specifically, HEK293 cells were inoculated at a cell density of 4.0×10^4 cells/well to a 96-well plate. After 12 hours therefrom, the medium was replaced with a culture solution (DMEM containing 5% (v/v) charcoal-treated serum). The cells were cotransfected with pBIND-ERα for the expression of ERα LBD or pBIND-ERβ for the expression of ERβ LBD (Promega Corp.) and pGL4.35[luc2P/9XGAL4UAS/Hygro](Promega Corp.) using Lipofectamine 2000 (Invitrogen Corp.) according to the protocol attached to the product. 24 hours after transfection, the medium was replaced with a culture solution containing a test sample, followed by culture for another 24 hours. The activity measurement of firefly luciferase (index for the ligand binding activity of ER) and Renilla reniformis luciferase (index for the transfection efficiency of the plasmids) was carried out using Dual-Glo™ Luciferase Assay System (Promega Corp.) according to the attached protocol. The luminescence intensity of the firefly luciferase was divided by the luminescence intensity of the Renilla reniformis luciferase to calculate a relative light unit (RLU).

ERα LBD = target: T2, ERα LBD (Homo sapiens, UniProt P03372); experiment: Ability to bind to ERα: pBIND-ERα LBD / GAL4 luciferase reporter in HEK293 cells; type: cell-based; set-up: key: firefly luciferase / Renilla luciferase luminescence ratio; conditions: negative control 0.00847035
T2 construct: host or cells: HEK293
T2 sequence (P03372 311-547 limits assumed): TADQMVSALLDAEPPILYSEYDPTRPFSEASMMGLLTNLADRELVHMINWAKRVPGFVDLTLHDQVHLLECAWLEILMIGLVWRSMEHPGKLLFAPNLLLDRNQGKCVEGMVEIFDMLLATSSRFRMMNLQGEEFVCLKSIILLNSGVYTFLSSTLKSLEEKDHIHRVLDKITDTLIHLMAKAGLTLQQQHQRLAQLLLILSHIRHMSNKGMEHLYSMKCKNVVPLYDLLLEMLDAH
Method: as §1, §2
as §3, with “Specifically,” for “This measurement was carried out according to the method described in JP-B-5990058. Specifically,”

Oc1ccc(CC(C=C(F)F)c2ccc(O)cc2F)c(F)c1 (centres unmarked) [Compound 17-F, 4,4′-(4,4-difluorobut-3-ene-1,2-diyl)bis(3-fluorophenol)]
skin browning induced by testosterone (sebum secretion, FIG. 3) [1]: markedly inhibited | relative light unit (RLU), ligand binding activity ERβ (ERβ LBD; 0.01 nM): 0.4273 | relative light unit (RLU), ligand binding activity ERβ (ERβ LBD; 0.1 nM): 1.771 | relative light unit (RLU), ligand binding activity ERβ (ERβ LBD; 1 nM): 2.021 | relative light unit (RLU), ligand binding activity ERβ (ERβ LBD; 10 nM): 2.367 | relative light unit (RLU), ligand binding activity ERβ (ERβ LBD; 100 nM): 2.186 | relative light unit (RLU), ligand binding activity ERα (ERα LBD; 0.01 nM): 0.02573 | relative light unit (RLU), ligand binding activity ERα (ERα LBD; 0.1 nM): 0.06025 | relative light unit (RLU), ligand binding activity ERα (ERα LBD; 1 nM): 0.2198 | relative light unit (RLU), ligand binding activity ERα (ERα LBD; 10 nM): 1.873 | relative light unit (RLU), ligand binding activity ERα (ERα LBD; 100 nM): 3.193
